Laboratory results reported in PMC7063354, “Novel dipeptidyl peptidase‐IV and angiotensin‐I‐converting enzyme inhibitory peptides released from quinoa protein by in silico proteolysis” (Food Science & Nutrition, 2020).
Like-named read-outs stand apart in the source and are kept apart here. Peptide text beside a SMILES is read from it.

Legend:
ACE = target: T1, ACE (Homo sapiens, UniProt P12821); experiment: ACE inhibition assay (ACE kit-WST); assay type: biochemical; conditions: chemically synthesized peptides; mean ± SD of three replicates
T1 construct: purchased ACE kit‐WST
T1 sequence (P12821 30-1306, species assumed): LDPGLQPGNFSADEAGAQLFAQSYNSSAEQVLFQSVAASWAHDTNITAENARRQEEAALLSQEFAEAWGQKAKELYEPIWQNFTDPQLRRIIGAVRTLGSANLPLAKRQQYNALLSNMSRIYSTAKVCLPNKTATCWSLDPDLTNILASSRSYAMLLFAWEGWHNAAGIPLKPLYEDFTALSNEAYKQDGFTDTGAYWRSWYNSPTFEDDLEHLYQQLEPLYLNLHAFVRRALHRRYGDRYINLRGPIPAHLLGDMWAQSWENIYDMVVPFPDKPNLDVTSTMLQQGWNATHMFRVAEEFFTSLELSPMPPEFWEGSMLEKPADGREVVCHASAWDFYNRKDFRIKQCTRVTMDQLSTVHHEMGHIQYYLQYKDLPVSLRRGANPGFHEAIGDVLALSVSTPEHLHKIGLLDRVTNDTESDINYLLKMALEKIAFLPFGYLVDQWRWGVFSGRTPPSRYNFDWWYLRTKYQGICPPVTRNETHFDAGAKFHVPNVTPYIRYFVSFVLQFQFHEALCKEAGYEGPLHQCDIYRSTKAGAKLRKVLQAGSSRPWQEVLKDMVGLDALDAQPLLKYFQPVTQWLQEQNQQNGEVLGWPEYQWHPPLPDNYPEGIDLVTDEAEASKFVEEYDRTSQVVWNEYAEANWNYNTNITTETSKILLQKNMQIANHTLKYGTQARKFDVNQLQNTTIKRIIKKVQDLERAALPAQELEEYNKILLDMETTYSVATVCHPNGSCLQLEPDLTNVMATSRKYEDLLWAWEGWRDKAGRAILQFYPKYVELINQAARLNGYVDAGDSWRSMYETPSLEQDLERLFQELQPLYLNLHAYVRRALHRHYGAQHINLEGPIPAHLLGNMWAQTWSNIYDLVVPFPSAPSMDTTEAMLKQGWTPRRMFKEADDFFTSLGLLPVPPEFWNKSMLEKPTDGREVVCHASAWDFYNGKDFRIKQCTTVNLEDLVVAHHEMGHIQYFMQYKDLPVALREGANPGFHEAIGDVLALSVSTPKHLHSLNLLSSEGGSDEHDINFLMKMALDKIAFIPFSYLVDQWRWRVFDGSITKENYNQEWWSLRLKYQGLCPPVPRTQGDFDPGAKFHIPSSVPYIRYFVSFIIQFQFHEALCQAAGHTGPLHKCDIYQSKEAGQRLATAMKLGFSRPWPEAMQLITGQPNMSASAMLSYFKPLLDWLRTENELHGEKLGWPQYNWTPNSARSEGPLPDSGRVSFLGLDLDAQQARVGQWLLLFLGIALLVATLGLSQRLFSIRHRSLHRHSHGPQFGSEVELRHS
Description: The ACE inhibition assay was carried out with the ACE inhibitory assay kit (ACE kit‐WST). Absorbance at 450 nm was measured using a plate reader (SpectraMax plus, Molecular devices), and the IC50 value reported for each sample was the mean value from three independent replicate assays.

DPP-IV [1] = target: T2, DPP-IV (Homo sapiens, UniProt P27487); experiment: DPP-IV inhibition assay (DPP-IV inhibitor screening assay kit, Gly-Pro-Aminomethylcoumarin substrate); assay type: biochemical; conditions: chemically synthesized peptides; mean ± SD of three replicates
T2 construct: purchased Abnova KA1311
T2 sequence (P27487 whole entry): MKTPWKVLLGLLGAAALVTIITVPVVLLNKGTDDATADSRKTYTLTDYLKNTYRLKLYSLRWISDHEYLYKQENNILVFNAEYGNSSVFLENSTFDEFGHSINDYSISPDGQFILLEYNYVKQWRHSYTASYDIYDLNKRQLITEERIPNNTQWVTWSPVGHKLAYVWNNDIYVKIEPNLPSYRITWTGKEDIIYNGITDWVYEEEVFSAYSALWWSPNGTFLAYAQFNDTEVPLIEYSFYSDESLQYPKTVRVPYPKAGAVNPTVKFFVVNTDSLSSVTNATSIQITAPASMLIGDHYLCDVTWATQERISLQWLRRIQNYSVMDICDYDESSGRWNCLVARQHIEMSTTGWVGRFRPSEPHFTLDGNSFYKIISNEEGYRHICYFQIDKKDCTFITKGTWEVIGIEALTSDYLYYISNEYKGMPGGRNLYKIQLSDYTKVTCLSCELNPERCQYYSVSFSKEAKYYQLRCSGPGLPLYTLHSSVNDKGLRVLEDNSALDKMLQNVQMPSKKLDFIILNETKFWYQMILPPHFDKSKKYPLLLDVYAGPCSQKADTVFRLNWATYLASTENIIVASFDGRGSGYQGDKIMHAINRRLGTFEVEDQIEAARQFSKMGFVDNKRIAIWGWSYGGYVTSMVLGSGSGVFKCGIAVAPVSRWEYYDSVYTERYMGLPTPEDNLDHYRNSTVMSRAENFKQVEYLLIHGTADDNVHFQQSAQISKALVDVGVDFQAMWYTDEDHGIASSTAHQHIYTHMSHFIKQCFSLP
Description: The DPP‐IV inhibition assay was determined using DPP‐IV inhibitor screening assay kit (KA1311, Abnova). Briefly, peptide samples (10 μl), dispersed in assay buffer (20 mM Tris‐HCl containing 100 mM NaCl and 1 mM EDTA, pH 8.0) at various concentrations, were mixed with assay buffer and DPP‐IV in a 96‐well plate. Then, substrate solution (Gly‐Pro‐Aminomethylcoumarin) was added to initiate the reactions. The mixture was incubated at 37°C for 30 min, and the fluorescence was measured using a plate reader (Synergy MX, Bio Tek) at an excitation wavelength of 350 nm and an emission wavelength of 450 nm. The concentration of the DPP‐IV inhibitor required to inhibit 50% of DPP‐IV activity under the above assay conditions was defined as the IC50, which was the mean value from three independent replicate assays.

DPP-IV [2] = target: T2, DPP-IV; design: method as in Vilcacundo et al., 2017; conditions: peptide released from quinoa protein by pepsin-pancreatin digestion; ref Vilcacundo et al., 2017; read-out: IC50 DPP-IV inhibitory activity; cited from earlier work

IC50 (ACE) | IC50 (DPP-IV [1]) | Compound | IC50 (DPP-IV [2])
100 µM | 34.3 µM | N[C@@H](Cc1cnc[nH]1)C(=O)N1CCC[C@H]1C(=O)N[C@@H](Cc1ccccc1)C(=O)O [HPF] (H-His-Pro-Phe-OH) | –
152 µM | 338 µM | CSCC[C@H](N)C(=O)N[C@@H](C)C(=O)N[C@@H](Cc1ccccc1)C(=O)O [MAF] (H-Met-Ala-Phe-OH) | –
20.9 µM | 149 µM | CSCC[C@H](N)C(=O)N[C@@H](CS)C(=O)NCC(=O)O [MCG] (H-Met-Cys-Gly-OH) | –
152 µM | 127 µM | CSCC[C@H](NC(=O)[C@@H](N)CC(N)=O)C(=O)N[C@@H](Cc1ccccc1)C(=O)O [NMF] (H-Asn-Met-Phe-OH) | –
– | – | IQAEGGLT | 268 µM
